Experimental data reported in publication PMC8746705, “Comparison of Experimental Strategies to Study L-Type Amino Acid Transporter 1 (LAT1) Utilization by Ligands” (Molecules, 2021).
Read-outs that look alike come from different tables or passages of the source.

Tests used:
LAT1 [1] = experiment: Quantitative expression of LAT1 on the BV2 plasma membrane (LC-MS proteomics); assay type: cell-based, mouse; conditions: BV2 cells incubated 24 h; normalized to Na+/K+ATPase; compared to untreated control
Description: The protein expression levels of LAT1, in the plasma membrane fractions of BV2 cells were quantified using multiplexed MRM analysis according to the protocol described by Uchida et al.. First, the crude membrane fractions were isolated from three distinct sets of cell culture plates using Membrane Protein Extraction Kit (BioVision Incorporated, Milpitas, CA, USA) according to the manufacturer’s instructions. The protein content for each fraction was measured by Bio-Rad Protein Assay, based on the Bradford dye-binding method (EnVision, Perkin Elmer, Inc., Waltham, MA, USA). A total amount of 50 µg protein from each fraction was solubilized/denatured in 7 M guanidine hydrochloride, 0.5 M Tris-HCl and 10 mM EDTA-Na. The proteins were then reduced by dithiothreitol (1:50, w/w) and S-carboxymethylated by iodoacetamide (1:20, w/w). The alkylated proteins were precipitated by methanol/chloroform/water (4:1:3) and centrifuged at 18,000× g for 5 min at 4 °C. The pellet was resuspended in 6 M urea and mixed for 10 min at room temperature before the dilution with 0.1 M Tris-HCl (pH 8.5) to a final concentration of 1.2 M urea, and dissolved completely by intermittent sonication (Branson 3510, Danbury, CT, USA). The dissolved proteins were first digested with LysC (1/100, w/w) and 0.05% ProteaseMax (Promega Biotech AB, Nacka, Sweden) for 3 h at room temperature. Then, the samples were spiked with 10 µL (30 fmol) of the labelled peptides for absolute quantification (JPT Peptide Technologies GmbH, Berlin, Germany) (Table S2). The samples were incubated with (1/100, w/w) TPCK-Trypsin (Promega Biotech AB, Nacka, Sweden) for 18 h at 37 °C. The tryptic digestion was then quenched by adding 40 µL of 5% formic acid. The samples were then centrifuged at 18,000× g for 5 min at 4 °C, and the supernatants were transferred to vials for analysis.
The digested peptides were analyzed using an ultra-performance liquid chromatography system coupled with a triple quadrupole mass spectrometer with a heated electrospray ionization source in the positive mode (UPLC 1290 and MSD 6495, Agilent Technologies, Santa Clara, CA, USA). A total amount of 20 µL of the digested peptides (10 µg) was separated using AdvanceBio Peptide Map 2.1 × 250 mm, 2.7 μm column (Agilent Technologies, Santa Clara, CA, USA) and LC eluents of 0.1% formic acid in water (A) and acetonitrile (B). The peptides were eluted following a constant flow rate of 0.3 mL/min and a gradient of 2–7% B for 2 min, followed by 7–30% B for 48 min, 30–45% B for 3 min, and 45–80% B for 2.5 min before re-equilibrating the column again for 4.5 min. LAT1 was quantified based on the ratio between the light and heavy standard peptides, as described previously (Table S2). Data was acquired using Agilent MassHunter Workstation Acquisition (Agilent Technologies, Data Acquisition for Triple Quadrupole, version B.03.01) and processed by using Skyline software (version 20.1). The results were normalized to a housekeeping protein Na+/K+ATPase and expressed as fmol/µg of the total amount of protein in the samples.

LAT1 [2] = molecular target: T1, LAT1 (Mus musculus, UniProt Q9Z127); experiment: Cellular uptake of L-leucine after pre-incubation of BV2 cells with the compounds; assay type: cell-based; conditions: 100 µM (L-glutamine 2 mM) pre-incubated 10 min or 3 h, L-leucine 1–400 µM, 5 min
Description: The ability of compounds 1–15 to affect the uptake of a known LAT1 substrate L-leucine was evaluated by pre-incubating the BV2 cells at 37 °C for 10 min or 3 h with uptake buffer pH 7.4 (250 μL) containing 100 µM of compounds 1–15 or thyroxin (T4), or known nuclear receptor inducible compounds, phenobarbital (constitutive androstane receptor, CAR), and dexamethasone (pregnane X receptor, PXR) as controls. […] After incubation, the reaction was stopped by adding 250 µL of ice-cold HBSS, and the cells were washed two times with ice-cold HBSS. The cells were then lysed with 500 μL of 0.1 M NaOH (60 min) and the lysate was mixed with 3.5 mL of Emulsifier safe cocktail (Ultima Gold, PerkinElmer, Waltham, MA, USA). The radioactivity in the cells was measured by liquid scintillation counting (MicroBeta^2 counter, PerkinElmer Waltham, MA, USA). The results were multiplied by the amount of un-labeled proportion of L-leucine in each sample.

LAT1 [3] = molecular target: T1, LAT1; experiment: Cis-inhibition of radiolabelled LAT1-probe substrate uptake into BV2 cells; assay type: cell-based; conditions: for IC50: 5 min, mean ± SD
Description: (§1) After removal of the culture medium, the BV2 cells were carefully washed with pre-warmed HBSS (Hank’s balanced salt solution) containing 125.0 mM choline chloride, 4.8 mM KCl, 1.2 mM MgSO4, 1.2 mM KH2PO4, 1.3 mM CaCl2, 5.6 mM glucose, and 25.0 mM HEPES (pH 7.4 adjusted with 1 M NaOH). Pre-incubation was done with 500 μL of pre-warmed HBSS at 37 °C for 10 min before adding substrates (250 μL in HBSS) for the uptake experiments.
The ability of compounds 1–15 to inhibit the uptake of a known LAT1 substrate [^14C]-L-leucine was then evaluated by incubating the cells at 37 °C for 5 min in uptake buffer pH 7.4 (250 μL) containing 0.2 µCi/mL of [^14C]-L-leucine, or 2 µCi/mL of [^3H]-L-methionine, [^3H]-L-tryptophan or [^3H]-L-kynurenine (PerkinElmer, Waltham, MA, USA) and 0.1–1000 μM of the studied compound (or HBSS as blank). After incubation, the uptake was stopped by adding 250 µL of ice-cold HBSS, and the cells were washed two times with ice-cold HBSS. The cells were then lysed with 500 μL of NaOH (0.1 M) for 60 min and the lysate was mixed with 3.5 mL of Emulsifier safe cocktail (Ultima Gold, PerkinElmer, Waltham, MA, USA). The radioactivity in the cells was measured by liquid scintillation counting (MicroBeta^2 counter, PerkinElmer Waltham, MA, USA). Half of the maximum inhibitory concentration (IC50) values were calculated by nonlinear regression analysis (fitting the curve to log (concentration) vs. remaining normalized […]).

[4] = tested on: immortalized mouse microglia (BV2); experiment: Time-dependent cellular uptake of compounds into BV2 cells (LC-MS/MS); assay type: cell-based; conditions: for Max. cellular uptake: 100 µM compound, 1–60 min, mean ± SD, n = 3
Description: (§2) For the time-dependent cellular uptake experiments, the BV2 cells on 24-well plates were incubated with studied compounds (100 μM) in a pre-warmed HBSS buffer (250 μL) at 37 °C for 1–60 min. Subsequently, the cells were washed three times with an ice-cold HBSS and lysed with 250 μL of NaOH (0.1 M) for 60 min. The lysates were diluted with acetonitrile (ACN) including the selected internal standard (diclofenac to all compounds) with a ratio of 1:3 and centrifuged at 10,000× g for 10 min. The samples were analyzed by the liquid chromatography-tandem mass spectrometric (LC-MS/MS) methods as described below. The concentrations of each compound in cell lysates were calculated from the standard curve that was prepared by spiking known amounts of compounds to ACN including the selected internal standard and then normalized with protein concentration. The protein concentrations on each plate were determined as a mean of three samples by Bio-Rad Protein Assay, based on the Bradford dye-binding method, using bovine serum albumin (BSA) as a standard protein and measuring the absorbance (595 nm) by multiplate reader (EnVision, Perkin Elmer, Inc., Waltham, MA, USA).
(§3) The studied compounds (1–15) were analyzed by using Agilent 1200 Series Rapid Resolution LC System together with an Agilent 6410 Triple Quadrupole Mass Spectrometer equipped with an electrospray ionization source (Agilent Technologies, Santa Clara, CA, USA). The chromatographic separations of analytes were achieved by using a reversed-phase Zobrax SB-C18 column (50 mm × 2.1 mm, 1.8 μm; Agilent Technologies, Santa Clara, CA, USA) by eluting the samples with 0.1% formic acid in water (A) and 0.1% formic in ACN (B). Labetalol and diclofenac were used as internal standards (ISTD) for the prodrugs and parent drugs, respectively. The transitions used for the quantification at the positive ion mode and chromatographic conditions of each compound and their parent drugs are listed in Table S1. The methods of compounds 1–11 have been reported earlier, while the methods of compounds 12–15 are reported herein for the first time.

LAT1 [5] = molecular target: T1, LAT1; experiment: Inhibition type of [14C]-L-Leu uptake (Hanes-Woolf plots) in BV2 cells; assay type: cell-based; conditions: for Vmax of [14C]-L-Leu uptake: 0.010–0.20 µM [14C]-L-Leu in the presence of the compound at its IC50, mean ± SD, n = 3–4; for Vmax of [14C]-L-Leu uptake / Inhibition Type: BV2; for Inhibition Type: of [14C]-L-Leu uptake, concluded from Km and Vmax
Description: as §1
To evaluate the inhibition type of studied compounds, the BV2 cells were incubated with 0.010–0.20 μM [^14C]-L-leucine together with the studied compound. The concentration of compounds was selected according to the compound-specific IC50 values. The experiment was then carried out as described for the [^14C]-L-leucine uptake above and the radioactivity was measured by liquid scintillation counting. Hanes-Woolf plots were created by setting the ratio of initial substrate concentration to the reaction velocity ([S]/v) against [^14C]-L-leucine concentration (µM). The linear regression was used to calculate Km value (negative value of x-intercept) and Vmax value (1/slope) for [^14C]-L-leucine.

LAT1 [6] = molecular target: T1, LAT1; experiment: Cellular uptake of compounds in the presence of LAT1-inhibitor (KMH-233); assay type: cell-based; conditions: 100 µM compound, 100 µM KMH-233, 30 min, BV2
Description: The competitive uptake in the presence of LAT1-inhibitor (KMH-233) was carried out as described above with HBSS buffer solution containing 100 µM of the studied compounds. The cells were pre-incubated with 100 µM LAT1-inhibitor for 10 min and the incubation mixture was removed before adding the studied compound and LAT1-inhibitor on the cells. The competitive uptake (30 min) with the inhibitor was then carried out as the normal uptake described above. The amounts of studied compounds were analyzed by the LC-MS method and calculated from the spiked standard curve and normalized with the protein concentrations.

LAT1 [7] = molecular target: T1, LAT1; experiment: Concentration-dependent cellular uptake into BV2 cells, Eadie–Hofstee analysis, Transport Type 1 (LAT1); assay type: cell-based; conditions: 1–200 µM, 30 min, BV2; Eadie–Hofstee; mean ± SD, n = 3
Description: (§4) For the concentration-dependent cellular uptake experiments, the BV2 cells on 24-well plates were incubated with studied compounds (1–200 μM) in pre-warmed HBSS buffer (250 μL) at 37 °C for 30 min. The experiment was then carried out as described for the time-dependent uptake above and the concentration of studied compounds in the cell lysate was analyzed by the LC-MS/MS methods described above and the results were normalized to the total protein concentration. The distinct transport mechanisms were separated from the Michaelis-Menten kinetics by using Eadie–Hofstee plot.
as §3

LAT1 [8] = molecular target: T1, LAT1; design: method as in earlier work; conditions: BV2 cells; probe [14C]-L-Leu; mean ± SD; published earlier; ref [31] or [33]; read-out: IC50 of [14C]-L-Leu uptake; cited from earlier work
[9] = Time-dependent cellular uptake of compounds into BV2 cells (LC-MS/MS); assay type: cell-based, mouse; conditions: mouse, BV2 microglia cells, 100 µM compound, 1–60 min, mean ± SD, n = 3, read-out: T½ of cellular uptake
Description: as §2, §3

Transport Type 2 = experiment: Concentration-dependent cellular uptake into BV2 cells, Eadie–Hofstee analysis, Transport Type 2; assay type: cell-based, mouse; conditions: 1–200 µM, 30 min, mean ± SD, n = 3
Description: as §4, §3

[10] = probe [3H]-L-Kynu, n = 3–4, read-out: IC50 of [3H]-L-Kynu uptake
[11] = probe [3H]-L-Met, n = 3–4, read-out: IC50 of [3H]-L-Met uptake
[12] = probe [3H]-L-Trp, n = 3–4, read-out: IC50 of [3H]-L-Trp uptake

T1 sequence (Q9Z127 whole entry): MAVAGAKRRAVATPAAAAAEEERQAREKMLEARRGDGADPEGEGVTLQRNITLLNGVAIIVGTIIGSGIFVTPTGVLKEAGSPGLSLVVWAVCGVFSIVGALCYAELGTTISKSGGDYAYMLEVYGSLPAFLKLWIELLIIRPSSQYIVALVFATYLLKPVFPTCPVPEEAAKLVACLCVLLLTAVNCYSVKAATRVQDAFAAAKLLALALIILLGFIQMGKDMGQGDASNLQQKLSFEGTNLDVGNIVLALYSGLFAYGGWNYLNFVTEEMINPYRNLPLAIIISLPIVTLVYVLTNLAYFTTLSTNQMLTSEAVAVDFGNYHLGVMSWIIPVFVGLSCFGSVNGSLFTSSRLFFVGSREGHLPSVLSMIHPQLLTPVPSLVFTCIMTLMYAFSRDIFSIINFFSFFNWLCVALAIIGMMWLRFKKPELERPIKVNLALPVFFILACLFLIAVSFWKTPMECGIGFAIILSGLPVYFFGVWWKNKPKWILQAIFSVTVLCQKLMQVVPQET
T1 sequence (P10852 whole entry partner): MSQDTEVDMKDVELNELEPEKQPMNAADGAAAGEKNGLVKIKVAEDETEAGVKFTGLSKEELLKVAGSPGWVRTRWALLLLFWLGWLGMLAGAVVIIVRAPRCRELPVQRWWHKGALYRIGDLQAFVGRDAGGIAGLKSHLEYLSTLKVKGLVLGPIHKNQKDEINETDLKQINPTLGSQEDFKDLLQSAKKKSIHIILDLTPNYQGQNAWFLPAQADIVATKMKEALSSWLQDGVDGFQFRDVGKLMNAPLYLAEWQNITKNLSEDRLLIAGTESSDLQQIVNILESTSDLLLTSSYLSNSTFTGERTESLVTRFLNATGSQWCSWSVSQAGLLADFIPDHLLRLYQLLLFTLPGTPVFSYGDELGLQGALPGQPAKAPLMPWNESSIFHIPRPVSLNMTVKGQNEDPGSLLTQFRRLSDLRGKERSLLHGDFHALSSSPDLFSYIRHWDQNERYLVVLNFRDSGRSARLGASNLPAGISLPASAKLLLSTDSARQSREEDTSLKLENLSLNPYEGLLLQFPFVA

SMILES	LAT1 expression on the plasma membrane (LAT1 [1])	Effect on cellular uptake of L-Leu after pre-incubation (LAT1 [2])	IC50 (LAT1 [3]; [10])	IC50 (LAT1 [3]; [11])	IC50 (LAT1 [3]; [12])	Max. cellular uptake [4]	LAT1-substrate or LAT1-binder ([4]; concluded from time-dependent uptake, 100 µM)	Vmax of [14C]-L-Leu uptake (LAT1 [5])	IC50 (LAT1 [5]; Table 2, compound concentration used in the inhibition type study, corresponding to IC50 of [14C]-L-Leu uptake)	Inhibition Type (LAT1 [5])	Cellular uptake in the presence of LAT1-inhibitor (LAT1 [6])	Km (LAT1 [7])	Transport Type 1 (LAT1) Vmax (LAT1 [7])	IC50 (LAT1 [8])	Inhibition of LAT1-probe substrate uptake / LAT1 affinity (LAT1 [3]; over all probe substrates)	IC50 (LAT1 [3]; probe [14C]-L-Leu, n = 3–4, read-out: IC50 of [14C]-L-Leu uptake)	half-life at 100 μM [9]	Km (Transport Type 2)	Transport Type 2 Vmax (Transport Type 2)
N[C@@H](Cc1cc(I)c(Oc2cc(I)c(O)c(I)c2)c(I)c1)C(=O)O [Compound T4, thyroxin, reference compound]	downregulated LAT1 expression	induced the uptake of L-Leu																	
COc1ccc2cc([C@H](C)C(=O)Nc3cccc(C[C@H](N)C(=O)O)c3)ccc2c1 [Compound 11]			1.8 ± 1.2 µM	10.4 ± 1.5 µM	14 ± 1.2 µM	4.48 ± 0.37 nmol/mg of protein	LAT1-binders rather than substrates	1.515 ± 0.125 nmol/min/mg	10 µM	Non-competitive	only reductive trends were seen	2.6 ± 1.2 µM	53 ± 8 pmol/mg/min	9 ± 1.1 µM					
COc1cc(/C=C/C(=O)Nc2cccc(C[C@H](N)C(=O)O)c2)ccc1O [Compound 6]		induced the uptake of L-Leu	54.3 ± 1.3 µM	> 100 µM	> 100 µM	1.11 ± 0.09 nmol/mg of protein		3.224 ± 0.077 nmol/min/mg		Non-competitive	inhibited significantly	3.6 ± 0.4 µM	0.11 ± 0.01 pmol/mg/min		not able to inhibit the LAT1-probe substrate uptake very effectively	> 100 µM	9.38 ± 2.33 min	78 ± 16 µM	0.26 ± 0.02 pmol/mg/min
